From ChEMBL document CHEMBL5576128, “Discovery of Potent Isoquinolinequinone N-Oxides to Overcome Cancer Multidrug Resistance” (J Med Chem, 2024)
Active and inactive are the calls of the source. The rule behind the calls is not given here.

Key:
NCI-H460 [1] = experiment: Inhibition of cell proliferation in human NCI-H460 cells at 50 nM incubated for 48 hrs by BrdU incorporation assay; assay type: functional, cell-based
NCI-H460 [2] = experiment: Inhibition of human NCI-H460 cells […] at 50 nM incubated for 48 hrs; assay type: functional, cell-based
NCI/ADR-RES = experiment: Potency index, ratio of doxorubicin GI50 to test compound GI50 for human NCI/ADR-RES cells; assay type: functional
[3] = test system: Doxorubicin-resistant NCI-H460/R; experiment: Inhibition of human Doxorubicin-resistant NCI-H460/R cells […] assessed as reduction in viability at 2 uM incubated for 48 hrs; assay type: functional, cell-based
NCI-H460 [4] = experiment: Upregulation of p-histone H2A.X expression in human NCI-H460 cells at high concentration incubated for 48 hrs by Western blotting analysis; assay type: functional, cell-based
NCI-H460 [5] = experiment: Effect on human NCI-H460 cells […] assessed as change in diameter at 0.35 to 0.7 uM incubated for 48 hrs; assay type: functional, cell-based; settings: dose 0.35-0.7 µM
NCI-H460 [6] = experiment: Inhibition of cell proliferation in human NCI-H460 cells at 0.35 to 0.7 uM incubated for 48 hrs by BrdU incorporation assay; assay type: functional, cell-based; settings: dose 0.35-0.7 µM
[7] = target: ATP-dependent translocase ABCB1 (Homo sapiens, UniProt P08183); experiment: Inhibition of P-gp mediated drug efflux in human NCI-H460 cells assessed as accumulation of rhodamine-123 accumulation at 10 to 20 uM incubated for 1 hr by flow cytometry analysis; assay type: cell-based; settings: nci-h460, 1 h, dose 10-20 µM
ATP-dependent translocase ABCB1, sequence (P08183 whole entry): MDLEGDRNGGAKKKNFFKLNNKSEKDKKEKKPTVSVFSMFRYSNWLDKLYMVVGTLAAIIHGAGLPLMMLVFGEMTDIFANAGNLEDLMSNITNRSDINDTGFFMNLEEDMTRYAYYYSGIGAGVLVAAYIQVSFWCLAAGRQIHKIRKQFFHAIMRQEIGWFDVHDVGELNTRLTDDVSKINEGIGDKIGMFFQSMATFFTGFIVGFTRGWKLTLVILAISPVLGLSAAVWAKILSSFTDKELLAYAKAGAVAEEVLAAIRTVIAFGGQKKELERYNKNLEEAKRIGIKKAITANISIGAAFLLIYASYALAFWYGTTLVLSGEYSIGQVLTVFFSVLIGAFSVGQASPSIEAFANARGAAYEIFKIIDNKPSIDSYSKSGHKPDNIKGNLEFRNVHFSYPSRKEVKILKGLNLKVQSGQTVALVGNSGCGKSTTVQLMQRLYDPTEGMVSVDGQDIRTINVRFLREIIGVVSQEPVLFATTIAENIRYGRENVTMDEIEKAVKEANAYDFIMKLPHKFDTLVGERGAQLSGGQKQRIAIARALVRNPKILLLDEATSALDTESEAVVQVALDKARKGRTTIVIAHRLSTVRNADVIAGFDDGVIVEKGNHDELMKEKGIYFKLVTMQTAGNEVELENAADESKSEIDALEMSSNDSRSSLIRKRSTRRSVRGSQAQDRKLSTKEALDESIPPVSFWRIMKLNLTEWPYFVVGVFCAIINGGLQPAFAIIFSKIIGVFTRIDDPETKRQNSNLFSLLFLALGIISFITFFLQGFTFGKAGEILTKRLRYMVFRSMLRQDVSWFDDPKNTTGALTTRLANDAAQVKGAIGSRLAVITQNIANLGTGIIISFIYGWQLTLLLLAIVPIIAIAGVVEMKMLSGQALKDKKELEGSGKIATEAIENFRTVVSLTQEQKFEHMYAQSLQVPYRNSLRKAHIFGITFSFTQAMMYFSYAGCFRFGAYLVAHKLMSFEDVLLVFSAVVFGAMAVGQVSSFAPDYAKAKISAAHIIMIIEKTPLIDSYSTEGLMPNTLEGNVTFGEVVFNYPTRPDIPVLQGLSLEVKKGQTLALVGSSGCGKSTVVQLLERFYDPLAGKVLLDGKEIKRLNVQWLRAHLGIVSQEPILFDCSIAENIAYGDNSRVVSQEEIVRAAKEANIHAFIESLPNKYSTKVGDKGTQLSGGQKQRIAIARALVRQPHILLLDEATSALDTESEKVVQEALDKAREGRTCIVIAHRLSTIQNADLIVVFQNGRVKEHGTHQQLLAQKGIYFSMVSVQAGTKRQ

DLD-1 [8] = experiment: Effect on human DLD-1 cells […] assessed as change in compactness at 0.35 to 0.7 uM incubated for 48 hrs; assay type: functional, cell-based; settings: dose 0.35-0.7 µM
[9] = test system: Paclitaxel-resistant DLD1-TxR cells; experiment: Effect on human Paclitaxel-resistant DLD1-TxR cells […] assessed as change in compactness at 0.35 to 0.7 uM incubated for 48 hrs; assay type: functional, cell-based; settings: dose 0.35-0.7 µM
[10] = test system: Doxorubicin-resistant NCI-H460/R; experiment: Effect on human Doxorubicin-resistant NCI-H460/R cells […] assessed as change in compactness at 0.35 to 0.7 uM incubated for 48 hrs; assay type: functional, cell-based; settings: dose 0.35-0.7 µM
NCI-H460 [11] = experiment: Effect on human NCI-H460 cells […] assessed as change in circularity at 0.35 to 0.7 uM incubated for 48 hrs; assay type: functional, cell-based; settings: dose 0.35-0.7 µM
[12] = test system: Paclitaxel-resistant DLD1-TxR cells; experiment: Effect on human Paclitaxel-resistant DLD1-TxR cells […] assessed as change in circularity at 0.35 to 0.7 uM incubated for 48 hrs; assay type: functional, cell-based; settings: dose 0.35-0.7 µM
NCI-H460 [13] = experiment: Effect on LC3-II expression in human NCI-H460 cells at 0.35 to 0.7 uM incubated for 48 hrs by Western blotting analysis; assay type: functional, cell-based; settings: dose 0.35-0.7 µM
NCI-H460 [14] = experiment: Induction of apoptosis in human NCI-H460 cells at 0.35 to 0.7 uM incubated for 48 hrs by Annexin-V FITC/propidium iodide staining based flow cytometry analysis; assay type: functional, cell-based; settings: dose 0.35-0.7 µM
DLD-1 [15] = experiment: Effect on human DLD-1 cells […] assessed as change in circularity at 0.35 to 0.7 uM incubated for 48 hrs; assay type: functional, cell-based; settings: dose 0.35-0.7 µM
NCI-H460 [16] = experiment: Effect on LC3-I expression in human NCI-H460 cells at 0.35 to 0.7 uM incubated for 48 hrs by Western blotting analysis; assay type: functional, cell-based; settings: dose 0.35-0.7 µM
NCI-H460 [17] = experiment: Upregulation of TP53BP1 expression in human NCI-H460 cells at high concentration incubated for 48 hrs by Western blotting analysis; assay type: functional, cell-based
NCI-H460 [18] = experiment: Inhibition of cell growth in human NCI-H460 cells incubated for 48 hrs by trypan blue exclusion assay; assay type: functional, cell-based
NCI-H460 [19] = experiment: Effect on p62 expression in human NCI-H460 cells at 0.35 to 0.7 uM incubated for 48 hrs by Western blotting analysis; assay type: functional, cell-based; settings: dose 0.35-0.7 µM
[20] = test system: Doxorubicin-resistant NCI-H460/R; experiment: Effect on human Doxorubicin-resistant NCI-H460/R cells […] assessed as change in circularity at 0.35 to 0.7 uM incubated for 48 hrs; assay type: functional, cell-based; settings: dose 0.35-0.7 µM
[21] = test system: Paclitaxel-resistant DLD1-TxR cells; experiment: Effect on human Paclitaxel-resistant DLD1-TxR cells […] assessed as change in diameter at 0.35 to 0.7 uM incubated for 48 hrs; assay type: functional, cell-based; settings: dose 0.35-0.7 µM
MRC5 = experiment: Cytotoxicity against human MRC5 cells at less than 0.5 uM incubated for 48 hrs by SRB method; assay type: toxicity, cell-based; settings: mrc5, 48 h
[22] = test system: Doxorubicin-resistant NCI-H460/R; experiment: Inhibition of human Doxorubicin-resistant NCI-H460/R cells spheroid viability by CellTiter-Glo 3D viability assay; assay type: functional, cell-based
[23] = test system: Doxorubicin-resistant NCI-H460/R; experiment: Effect on human Doxorubicin-resistant NCI-H460/R cells […] assessed as change in diameter at 0.35 to 0.7 uM incubated for 48 hrs; assay type: functional, cell-based; settings: dose 0.35-0.7 µM
NCI-H460 [24] = experiment: Downregulation of procaspase-3 expression in human NCI-H460 cells at 0.35 to 0.7 uM incubated for 48 hrs by Western blotting analysis; assay type: functional, cell-based; settings: dose 0.35-0.7 µM
DLD-1 [25] = experiment: Effect on human DLD-1 cells […] assessed as change in diameter at 0.35 to 0.7 uM incubated for 48 hrs; assay type: functional, cell-based; settings: dose 0.35-0.7 µM
NCI-H460 [26] = experiment: Effect on human NCI-H460 cells […] assessed as change in compactness at 0.35 to 0.7 uM incubated for 48 hrs; assay type: functional, cell-based; settings: dose 0.35-0.7 µM
NCI-H460 [27] = experiment: Induction of cell cycle arrest in human NCI-H460 cells assessed as increase in G1 phase cells at 0.35 to 0.7 uM incubated for 48 hrs by propidium iodide staining based flow cytometry analysis; assay type: functional; settings: dose 0.35-0.7 µM
NCI-H460 [28] = experiment: Upregulation of cyclin D1 expression in human NCI-H460 cells at 0.35 to 0.7 uM incubated for 48 hrs by Western blotting analysis; assay type: functional, cell-based; settings: dose 0.35-0.7 µM
NCI-H460 [29] = experiment: Induction of cell cycle arrest in human NCI-H460 cells assessed as decrease in S phase cells at 0.35 to 0.7 uM incubated for 48 hrs by propidium iodide staining based flow cytometry analysis; assay type: functional; settings: dose 0.35-0.7 µM
DLD-1 [30] = experiment: Inhibition of human DLD-1 cells spheroid viability by CellTiter-Glo 3D viability assay; assay type: functional, cell-based
NCI-H460 [31] = experiment: Induction of ROS accumulation in human NCI-H460 cells at 0.7 to 5 uM incubated for 6 hrs by CM-H2DCFDA staining based flow cytometry analysis; assay type: functional, cell-based; settings: dose 0.7-5 µM
NCI-H460 [32] = experiment: Induction of DNA damage in human NCI-H460 cells at 0.7 uM incubated for 48 hrs by Western blotting analysis; assay type: functional, cell-based
NCI-H460 [33] = experiment: Induction of cell cycle arrest in human NCI-H460 cells assessed as increase in sub-G1 phase cells at 0.35 to 0.7 uM incubated for 48 hrs by propidium iodide staining based flow cytometry analysis; assay type: functional; settings: dose 0.35-0.7 µM
[34] = test system: Paclitaxel-resistant DLD1-TxR cells; experiment: Inhibition of human Paclitaxel-resistant DLD1-TxR cells spheroid viability by CellTiter-Glo 3D viability assay; assay type: functional, cell-based
NCI-H460 [35] = experiment: Upregulation of p53 expression in human NCI-H460 cells at 0.35 to 0.7 uM incubated for 48 hrs by Western blotting analysis; assay type: functional, cell-based; settings: dose 0.35-0.7 µM
MCF-12A = experiment: Cytotoxicity against human MCF-12A cells at 1 to 5 uM incubated for 48 hrs by SRB method; assay type: toxicity, cell-based; settings: dose 1-5 µM
NCI-H460 [36] = experiment: Effect on PARP-1 expression in human NCI-H460 cells at 0.35 to 0.7 uM incubated for 48 hrs by Western blotting analysis; assay type: functional, cell-based; settings: dose 0.35-0.7 µM
NCI-H460 [37] = experiment: Inhibition of human NCI-H460 cells spheroid viability by CellTiter-Glo 3D viability assay; assay type: functional, cell-based
NCI-H460 [38] = experiment: Upregulation of p21 expression in human NCI-H460 cells at 0.7 uM incubated for 48 hrs by Western blotting analysis; assay type: functional, cell-based

## COc1cccc2c1C(=O)c1c(O)c3c(c(O)c1C2=O)C[C@@](O)(C(=O)CO)C[C@@H]3O[C@H]1C[C@H](N)[C@H](O)[C@H](C)O1
NCI-H460 [1]
  inhibition: Active
NCI-H460 [2]
  inhibition: inactive

## COC(=O)c1c2c(c(C)[n+]([O-])c1C)C(=O)C=C(NCc1ccccc1)C2=O
NCI/ADR-RES
  RatioGI50: 40

## COc1cc([C@@H]2c3cc4c(cc3[C@@H](O[C@@H]3O[C@@H]5CO[C@@H](C)O[C@H]5[C@H](O)[C@H]3O)[C@H]3COC(=O)[C@H]23)OCO4)cc(OC)c1O
[3]
  Activity: inactive

## COC(=O)c1c2c(c[n+]([O-])c1C)C(=O)C=C(NCc1ccccc1)C2=O
NCI-H460 [4]
  Activity: Active
NCI-H460 [5]
  Activity: inactive
NCI-H460 [6]
  inhibition: Active
[7]
  inhibition (INH): Active
DLD-1 [8]
  Activity: inactive
[9]
  Activity: inactive
[10]
  Activity: inactive
NCI-H460 [11]
  Activity: inactive
[12]
  Activity: inactive
NCI-H460 [13]
  Activity: inactive
NCI-H460 [14]
  Activity: inactive
DLD-1 [15]
  Activity: inactive
NCI-H460 [16]
  Activity: inactive
NCI-H460 [17]
  Activity: Active
NCI-H460 [18]
  inhibition: Active
NCI-H460 [19]
  Activity: inactive
[20]
  Activity: inactive
[21]
  Activity: inactive
MRC5
  Activity: Non-Toxic
[22]
  inhibition: Active
[23]
  Activity: inactive
NCI-H460 [24]
  Activity: Active
DLD-1 [25]
  Activity: inactive
NCI-H460 [26]
  Activity: inactive
NCI-H460 [27]
  Activity: Active
NCI-H460 [28]
  Activity: Active
NCI-H460 [29]
  Activity: Active
DLD-1 [30]
  inhibition: Active
NCI-H460 [31]
  Activity: Active
NCI-H460 [32]
  Activity: inactive
NCI-H460 [33]
  Activity: Active
[34]
  inhibition: Active
NCI-H460 [35]
  Activity: inactive
MCF-12A
  Activity: Non-Toxic
NCI-H460 [36]
  Activity: inactive
NCI-H460 [37]
  inhibition: Active
NCI-H460 [38]
  Activity: Active
